In ChEMBL document CHEMBL4732221, “Design, synthesis and bioactivity evaluation of novel pyrazole linked phenylthiazole derivatives in context of antibacterial activity” (Bioorg Med Chem Lett, 2021):
Converted amounts (≈) assume the structure as drawn. The source made the active and inactive calls. No cut-off for these calls is given here.

Columns and labels:
Staphylococcus aureus [1] = test: Antibacterial activity against methicillin-resistant Staphylococcus aureus ATCC 43300 assessed as growth inhibition after 18 hrs by monochromator plate assay; assay type: functional
Klebsiella pneumoniae [2] = test: Antibacterial activity against Klebsiella pneumoniae ATCC 700603 assessed as growth inhibition at 32 ug/ml after 18 hrs by microplate reader assay relative to control; assay type: functional; conditions: for inhibition: dose 32.0 µg/ml
Cryptococcus neoformans [3] = test: Antifungal activity against Cryptococcus neoformans var. grubii ATCC 208821) assessed as growth inhibition after 36 hrs by monochromator plate assay relative to control; assay type: functional
Pseudomonas aeruginosa [4] = test: Antibacterial activity against Pseudomonas aeruginosa ATCC 27853 assessed as growth inhibition at 32 ug/ml after 18 hrs by monochromator plate assay relative to control; assay type: functional
Escherichia coli [5] = test: Antibacterial activity against Escherichia coli ATCC 25922 assessed as growth inhibition at 32 ug/ml after 18 hrs by monochromator plate assay relative to control; assay type: functional; conditions: dose 32.0 µg/ml
Escherichia coli [6] = test: Antibacterial activity against Escherichia coli ATCC 25922 assessed as growth inhibition after 18 hrs by monochromator plate assay; assay type: functional
Staphylococcus aureus [7] = test: Antibacterial activity against methicillin-resistant Staphylococcus aureus ATCC 43300 assessed as growth inhibition at 32 ug/ml after 18 hrs by monochromator plate assay relative to control; assay type: functional
Acinetobacter baumannii [8] = test: Antibacterial activity against Acinetobacter baumannii ATCC 19606 assessed as growth inhibition after 18 hrs by monochromator plate assay; assay type: functional
Candida albicans [9] = test: Antifungal activity against Candida albicans ATCC 90028 assessed as growth inhibition at 32 ug/ml after 36 hrs by monochromator plate assay relative to control; assay type: functional
[10] = (§1) Haemolytic activity against human whole blood after 70 mins by monochromator plate reader; assay type: ADME, tissue-based; conditions: whole blood
Blood = test: as §1; assay type: ADME, tissue-based; conditions: blood, 1.167 h
Cryptococcus neoformans [11] = test: Antifungal activity against Cryptococcus neoformans var. grubii ATCC 208821 assessed as growth inhibition at 32 ug/ml after 36 hrs by monochromator plate assay relative to control; assay type: functional; conditions: dose 32.0 µg/ml
Candida albicans [12] = test: Antifungal activity against Candida albicans ATCC 90028 assessed as growth inhibition after 36 hrs by monochromator plate assay; assay type: functional
Pseudomonas aeruginosa [13] = test: Antibacterial activity against Pseudomonas aeruginosa ATCC 27853 assessed as growth inhibition after 18 hrs by monochromator plate assay; assay type: functional
Acinetobacter baumannii [14] = test: Antibacterial activity against Acinetobacter baumannii ATCC 19606 assessed as growth inhibition at 32 ug/ml after 18 hrs by monochromator plate assay relative to control; assay type: functional
[15] = Cytotoxicity against HEK293 cells assessed as cell viability after 20 hrs by fluorescence assay; assay type: cell-based; conditions: human
Klebsiella pneumoniae [16] = test: Antibacterial activity against Klebsiella pneumoniae ATCC 700603 assessed as growth inhibition after 18 hrs by monochromator plate assay; assay type: functional
Streptococcus pneumoniae = test: Antibacterial activity against Streptococcus pneumoniae assessed as reduction in bacterial growth by CLSI based broth microdilution method; assay type: functional; conditions: time 18 hrs
Enterococcus faecalis = test: Antibacterial activity against vancomycin resistant Enterococcus faecalis assessed as reduction in bacterial growth by CLSI based broth microdilution method; assay type: functional; conditions: time 18 hrs
Escherichia coli [17] = test: Antibacterial activity against Escherichia coli assessed as reduction in bacterial growth by CLSI based broth microdilution method; assay type: functional; conditions: time 18 hrs
Staphylococcus aureus [18] = test: Antibacterial activity against methicillin-resistant Staphylococcus aureus assessed as reduction in bacterial growth by CLSI based broth microdilution method; assay type: functional; conditions: time 18 hrs
[19] = Inhibition of Escherichia coli DNA topoisomerase 4 assessed as reduction in decatenation of kinetoplast DNA measured after 1 hr by agarose gel electrophoresis method

With `Cc1nc(-c2ccc(-c3ccccc3)cc2)sc1-c1cc(C(=O)Nc2ccccc2)n[nH]1` the MIC (Staphylococcus aureus [1]) was 4 µg/mL (≈ 9.16 µM), the inhibition at 32 µg/mL (Klebsiella pneumoniae [2]) was 9.9% and the MIC (Cryptococcus neoformans [3]) was “inactive”. The inhibition at 32 µg/mL (Pseudomonas aeruginosa [4]) was 16.6%, the inhibition (Escherichia coli [5]) was “inactive” and the MIC (Escherichia coli [6]) was “inactive”. The inhibition at 32 µg/mL (Staphylococcus aureus [7]) was 85.1%, the MIC (Acinetobacter baumannii [8]) was > 32 µg/mL and the inhibition at 32 µg/mL (Candida albicans [9]) was 9.6%. For the same compound, the HC50 at 1.167 h [10] was > 32 µg/mL, the HC10 (Blood) was > 32 µg/mL and the inhibition (Cryptococcus neoformans [11]) was “inactive”. The MIC (Candida albicans [12]) was > 32 µg/mL, the MIC (Pseudomonas aeruginosa [13]) was > 32 µg/mL and the inhibition at 32 µg/mL (Acinetobacter baumannii [14]) was 1.6%. For the same compound, the CC50 at 20 h [15] was > 32 µg/mL and the MIC (Klebsiella pneumoniae [16]) was > 32 µg/mL.
With `CC[C@H](C)[C@H](NC(=O)CN)C(=O)NCC(=O)N[C@@H](C)C(=O)N[C@H](C(=O)N[C@@H](CC(C)C)C(=O)N[C@@H](CCCCN)C(=O)N[C@H](C(=O)N[C@@H](CC(C)C)C(=O)N[C@H](C(=O)N[C@H](C(=O)NCC(=O)N[C@@H](CC(C)C)C(=O)N1CCC[C@H]1C(=O)N[C@@H](C)C(=O)N[C@@H](CC(C)C)C(=O)N[C@H](C(=O)N[C@@H](CO)C(=O)N[C@@H](Cc1c[nH]c2ccccc12)C(=O)N[C@H](C(=O)N[C@@H](CCCCN)C(=O)N[C@@H](CCCNC(=N)N)C(=O)N[C@@H](CCCCN)C(=O)N[C@@H](CCCNC(=N)N)C(=O)N[C@@H](CCC(N)=O)C(=O)N[C@@H](CCC(N)=O)C(N)=O)[C@@H](C)CC)[C@@H](C)CC)[C@@H](C)O)[C@@H](C)O)C(C)C)C(C)C` [MELITTIN] the HC50 at 1.167 h [10] was 8.5 µg/mL and the HC10 (Blood) was 2.7 µg/mL.
With `Clc1cccc(-n2nc(C3CCNCC3)cc2/C=C/c2c[nH]c3ccc(Cl)cc23)c1` the MIC (Streptococcus pneumoniae) was 2 µg/mL (≈ 4.57 µM), the MIC (Enterococcus faecalis) was 2 µg/mL (≈ 4.57 µM) and the MIC (Escherichia coli [17]) was 16 µg/mL (≈ 36.6 µM). For the same compound, the MIC (Staphylococcus aureus [18]) was 2 µg/mL (≈ 4.57 µM).
With `Cc1nc(-c2ccc(I)cc2)sc1-c1cc(C(=O)NN2CCOCC2)n[nH]1` the MIC (Staphylococcus aureus [1]) was > 32 µg/mL, the inhibition at 32 µg/mL (Klebsiella pneumoniae [2]) was 8.4% and the MIC (Cryptococcus neoformans [3]) was “inactive”. The inhibition at 32 µg/mL (Pseudomonas aeruginosa [4]) was 10.1%, the inhibition (Escherichia coli [5]) was “inactive” and the MIC (Escherichia coli [6]) was “inactive”. The inhibition at 32 µg/mL (Staphylococcus aureus [7]) was 15.7%, the MIC (Acinetobacter baumannii [8]) was > 32 µg/mL and the inhibition at 32 µg/mL (Candida albicans [9]) was 3.5%. The inhibition (Cryptococcus neoformans [11]) was “inactive”, the MIC (Candida albicans [12]) was > 32 µg/mL and the MIC (Pseudomonas aeruginosa [13]) was > 32 µg/mL. For the same compound, the inhibition at 32 µg/mL (Acinetobacter baumannii [14]) was 2.8% and the MIC (Klebsiella pneumoniae [16]) was > 32 µg/mL.
For `c1ccc(COc2ccc(-c3cc(C4CCNCC4)[nH]n3)cc2)cc1`, the MIC (Enterococcus faecalis) was 64 µg/mL (≈ 192 µM), the MIC (Staphylococcus aureus [18]) was 64 µg/mL (≈ 192 µM) and the IC50 [19] was 128 µg/mL (≈ 384 µM).
In the case of `Cc1nc(-c2ccc(-c3ccccc3)cc2)sc1-c1cc(C(=O)Nc2cccc3ccccc23)n[nH]1`, the MIC (Staphylococcus aureus [1]) is reported as > 32 µg/mL, the inhibition at 32 µg/mL (Klebsiella pneumoniae [2]) is reported as 8.9% and the MIC (Cryptococcus neoformans [3]) is reported as “inactive”. For the same compound, the inhibition at 32 µg/mL (Pseudomonas aeruginosa [4]) was 8.2%, the inhibition (Escherichia coli [5]) was “inactive” and the MIC (Escherichia coli [6]) was “inactive”. The inhibition at 32 µg/mL (Staphylococcus aureus [7]) was 14.2%, the MIC (Acinetobacter baumannii [8]) was > 32 µg/mL and the inhibition at 32 µg/mL (Candida albicans [9]) was 5.1%. The inhibition (Cryptococcus neoformans [11]) was “inactive”, the MIC (Candida albicans [12]) was > 32 µg/mL and the MIC (Pseudomonas aeruginosa [13]) was > 32 µg/mL. The inhibition at 32 µg/mL (Acinetobacter baumannii [14]) was 0.9% and the MIC (Klebsiella pneumoniae [16]) was > 32 µg/mL.
With `Cc1nc(-c2ccc(-c3ccccc3)cc2)sc1-c1cc(C(=O)Nc2ccc3c(c2)OCO3)n[nH]1` the MIC (Staphylococcus aureus [1]) was > 32 µg/mL, the inhibition at 32 µg/mL (Klebsiella pneumoniae [2]) was 7.5% and the MIC (Cryptococcus neoformans [3]) was “inactive”. For the same compound, the inhibition at 32 µg/mL (Pseudomonas aeruginosa [4]) was 1.3%, the inhibition (Escherichia coli [5]) was “inactive” and the MIC (Escherichia coli [6]) was “inactive”. The inhibition at 32 µg/mL (Staphylococcus aureus [7]) was 3.2%, the MIC (Acinetobacter baumannii [8]) was “inactive” and the inhibition at 32 µg/mL (Candida albicans [9]) was 5%. The inhibition (Cryptococcus neoformans [11]) was “inactive”, the MIC (Candida albicans [12]) was > 32 µg/mL and the MIC (Pseudomonas aeruginosa [13]) was > 32 µg/mL. For the same compound, the inhibition (Acinetobacter baumannii [14]; dose 32.0 µg/ml) was “inactive” and the MIC (Klebsiella pneumoniae [16]) was > 32 µg/mL.
For `Cc1nc(-c2ccc(-c3ccccc3)cc2)sc1-c1cc(C(=O)NNc2ccccc2)n[nH]1`, the MIC (Staphylococcus aureus [1]) was > 32 µg/mL, the inhibition (Klebsiella pneumoniae [2]) was “inactive” and the MIC (Cryptococcus neoformans [3]) was “inactive”. The inhibition (Pseudomonas aeruginosa [4]; dose 32.0 µg/ml) was “inactive”, the inhibition (Escherichia coli [5]) was “inactive” and the MIC (Escherichia coli [6]) was “inactive”. For the same compound, the inhibition at 32 µg/mL (Staphylococcus aureus [7]) was 8.2%, the MIC (Acinetobacter baumannii [8]) was > 32 µg/mL and the inhibition at 32 µg/mL (Candida albicans [9]) was 17.8%. The inhibition (Cryptococcus neoformans [11]) was “inactive”, the MIC (Candida albicans [12]) was > 32 µg/mL and the MIC (Pseudomonas aeruginosa [13]) was “inactive”. For the same compound, the inhibition at 32 µg/mL (Acinetobacter baumannii [14]) was 5.5% and the MIC (Klebsiella pneumoniae [16]) was “inactive”.
In the case of `COC(=O)c1cc(-c2sc(-c3ccc(I)cc3)nc2C)[nH]n1`, the MIC (Staphylococcus aureus [1]) is reported as > 32 µg/mL, the inhibition (Klebsiella pneumoniae [2]) is reported as “inactive” and the MIC (Cryptococcus neoformans [3]) is reported as “inactive”. For the same compound, the inhibition at 32 µg/mL (Pseudomonas aeruginosa [4]) was 6.6%, the inhibition (Escherichia coli [5]) was “inactive” and the MIC (Escherichia coli [6]) was “inactive”. For the same compound, the inhibition at 32 µg/mL (Staphylococcus aureus [7]) was 14.2%, the MIC (Acinetobacter baumannii [8]) was > 32 µg/mL and the inhibition at 32 µg/mL (Candida albicans [9]) was 5.1%. For the same compound, the inhibition (Cryptococcus neoformans [11]) was “inactive”, the MIC (Candida albicans [12]) was > 32 µg/mL and the MIC (Pseudomonas aeruginosa [13]) was > 32 µg/mL. For the same compound, the inhibition at 32 µg/mL (Acinetobacter baumannii [14]) was 4.9% and the MIC (Klebsiella pneumoniae [16]) was “inactive”.
For `Cc1nc(-c2ccc(-c3ccccc3)cc2)sc1-c1cc(C(=O)Nc2ccc(C(C)(C)C)cc2)n[nH]1`, the MIC (Staphylococcus aureus [1]) was > 32 µg/mL, the inhibition at 32 µg/mL (Klebsiella pneumoniae [2]) was 5.2% and the MIC (Cryptococcus neoformans [3]) was “inactive”. The inhibition at 32 µg/mL (Pseudomonas aeruginosa [4]) was 2.2%, the inhibition (Escherichia coli [5]) was “inactive” and the MIC (Escherichia coli [6]) was “inactive”. The inhibition at 32 µg/mL (Staphylococcus aureus [7]) was 13.2%, the MIC (Acinetobacter baumannii [8]) was > 32 µg/mL and the inhibition at 32 µg/mL (Candida albicans [9]) was 5.2%. For the same compound, the inhibition (Cryptococcus neoformans [11]) was “inactive”, the MIC (Candida albicans [12]) was > 32 µg/mL and the MIC (Pseudomonas aeruginosa [13]) was > 32 µg/mL. For the same compound, the inhibition at 32 µg/mL (Acinetobacter baumannii [14]) was 3% and the MIC (Klebsiella pneumoniae [16]) was > 32 µg/mL.
